# Measurements taken from US10233173B2, “Substituted 1,2,3-triazoles as NR2B-selective NMDA modulators” (JANSSEN PHARMACEUTICA NV, priority 2016, dated 2019).
# Target: human GluN1/GluN2B NMDA receptors (Homo sapiens, UniProt Q05586+Q13224)
# Assay: Cell-based calcium flux (FLIPR) assay on cloned human NR1/NR2B ion channels expressed in mammalian cells
# Conditions: standard assay
# Experimental: Effects of Test Articles on Cloned Human NR1/NR2B Ion Channels Expressed in Mammalian Cells
# NMDA receptors are ion channels that are highly permeable to Ca^2+ ions, rendering it possible to monitor NMDA receptor function using cell-based calcium flux assay. In this assay, co-agonists glutamate and glycine are added to cells heterologously expressing human GluN1/GluN2B NMDA receptors to initiate cellular Ca^2+ influx. The time course of the changes in intracellular calcium is measured using a fluorescent dye and a FLIPR (Fluorometric Imaging Plate Reader) device.
# Twenty four hours before measurements, the expression of the NMDA receptors in the stable cell line is induced with Tet-On inducible system in the presence of a non-selective NMDA receptor blocker. On the day of the experiment, cell culture media is carefully washed and the cells are loaded with Calcium 5 Dye Kit (Molecular Devices) in dye loading buffer containing 149 mM NaCl, 4 mM KCl, 2 mM CaCl2, and 1.5 mM MgCl2, 10 mM HEPES and 5 mM D-glucose; pH 7.4. After 1 h incubation at the room temperature, the dye is washed away with the assay buffer (149 mM NaCl (standard assay) or 150 mM (HTS assay), 4 mM KCl (standard assay) or 3 mM (HTS assay), 2 mM CaCl2, 0.01 mM EDTA, 10 mM HEPES and 5 mM D-glucose; pH 7.4) In the FLIPR TETRA reader, various concentrations of the test compounds are added to the cells for 5 min while fluorescence is monitored to detect potential agonist activity. Next, co-agonists, glutamate and glycine are added for another 5 minutes. The concentration of glutamate corresponding to ˜EC80 (standard assay) or EC40 (HTS assay) is used to maximize the assay's signal window or the ability to detect NMDA receptor antagonists and negative allosteric modulators, respectively. A saturating concentration (10 μM) of glycine is also present in the assay. […] The fluorescent signal in the presence of test compounds is quantified and normalized to the signal defined by the appropriate control wells.
# [1] = human GluN1/GluN2B, calcium flux (FLIPR), glutamate ~EC80
# [2] = glutamate at ~EC80, FLIPR calcium flux
# Sequence of human GluN1/GluN2B NMDA receptors (Q13224 27-1484, other chains not shown): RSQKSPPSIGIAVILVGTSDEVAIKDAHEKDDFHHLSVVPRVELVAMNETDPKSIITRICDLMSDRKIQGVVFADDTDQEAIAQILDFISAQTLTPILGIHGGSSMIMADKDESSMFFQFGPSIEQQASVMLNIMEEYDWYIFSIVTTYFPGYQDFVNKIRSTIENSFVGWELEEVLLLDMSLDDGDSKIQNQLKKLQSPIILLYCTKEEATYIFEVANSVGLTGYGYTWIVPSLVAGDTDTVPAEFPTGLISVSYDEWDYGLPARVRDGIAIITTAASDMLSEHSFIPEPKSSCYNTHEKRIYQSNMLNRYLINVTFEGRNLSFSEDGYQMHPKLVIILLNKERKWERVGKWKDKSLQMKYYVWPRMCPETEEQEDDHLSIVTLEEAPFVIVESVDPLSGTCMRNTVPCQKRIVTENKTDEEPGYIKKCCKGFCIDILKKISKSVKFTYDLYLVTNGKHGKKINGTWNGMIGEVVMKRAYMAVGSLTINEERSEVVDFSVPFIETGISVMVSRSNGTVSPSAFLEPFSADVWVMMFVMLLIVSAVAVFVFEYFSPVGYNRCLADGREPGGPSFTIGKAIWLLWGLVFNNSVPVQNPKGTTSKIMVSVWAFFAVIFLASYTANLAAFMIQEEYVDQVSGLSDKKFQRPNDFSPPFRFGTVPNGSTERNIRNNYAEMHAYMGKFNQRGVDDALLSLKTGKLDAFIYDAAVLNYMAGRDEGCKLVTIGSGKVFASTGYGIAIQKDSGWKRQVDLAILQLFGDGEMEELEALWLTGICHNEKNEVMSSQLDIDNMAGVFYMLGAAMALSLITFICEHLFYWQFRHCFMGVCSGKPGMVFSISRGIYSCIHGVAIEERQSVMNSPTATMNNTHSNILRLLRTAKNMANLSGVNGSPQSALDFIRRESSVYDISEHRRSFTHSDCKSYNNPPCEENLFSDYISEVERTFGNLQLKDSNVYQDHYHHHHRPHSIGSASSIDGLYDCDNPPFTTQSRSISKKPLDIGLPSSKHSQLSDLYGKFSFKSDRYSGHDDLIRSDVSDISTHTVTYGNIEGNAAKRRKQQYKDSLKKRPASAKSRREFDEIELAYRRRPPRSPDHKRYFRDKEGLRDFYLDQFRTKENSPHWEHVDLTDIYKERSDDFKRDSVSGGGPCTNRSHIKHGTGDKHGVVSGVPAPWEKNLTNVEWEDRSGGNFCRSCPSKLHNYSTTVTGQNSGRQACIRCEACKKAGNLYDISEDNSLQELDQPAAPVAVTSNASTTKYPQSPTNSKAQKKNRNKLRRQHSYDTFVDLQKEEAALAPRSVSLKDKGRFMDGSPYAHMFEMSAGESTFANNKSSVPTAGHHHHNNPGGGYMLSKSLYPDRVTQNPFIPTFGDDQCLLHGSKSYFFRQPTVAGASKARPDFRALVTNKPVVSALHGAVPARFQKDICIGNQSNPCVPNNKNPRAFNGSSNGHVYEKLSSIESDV
Structure (SMILES),IC50 [1] [µM],IC50 [2] [µM]
"Cc1ccnc(OCc2cn(-c3ccc(F)c(C(F)F)c3)nn2)c1 [Example 115, 2-[[1-[3-(Difluoromethyl)-4-fluoro-phenyl]triazol-4-yl]methoxy]-4-methyl-pyridine]",0.17,
"Nc1ccnc(OCc2cn(-c3cccc(OC(F)(F)F)c3)nn2)n1 [Example 353, 2-[[1-[3-(Trifluoromethoxy)phenyl]triazol-4-yl]methoxy]pyrimidin-4-amine]",0.525,
"Cc1cnc(OCc2cn(-c3ccc(C)c(OC(F)F)c3)nn2)nc1 [Example 524, 2-[[1-[3-(Difluoromethoxy)-4-methyl-phenyl]triazol-4-yl]methoxy]-5-methyl-pyrimidine]",,0.028
"Cc1cccc(-n2cc(COc3ncc(C)c(N)n3)nn2)c1 [Example 254, 5-Methyl-2-[[1-(m-tolyl)triazol-4-yl]methoxy]pyrimidin-4-amine]",0.151,
"Cc1cc(-n2cc(COc3ncc(Cl)c(C)n3)nn2)c(F)cc1F [Example 657, 5-Chloro-2-[[1-(2,4-difluoro-5-methyl-phenyl)triazol-4-yl]methoxy]-4-methyl-pyrimidine]",,0.781
"COc1cnc(OCc2cn(-c3cccc(C(C)C)c3)nn2)nc1 [Example 264, 2-[[1-(3-Isopropylphenyl)triazol-4-yl]methoxy]-5-methoxy-pyrimidine]",0.006,
"CC(C)(O)c1cnc(OCc2cn(-c3cccc(C(C)(F)F)c3)nn2)nc1 [Example 301, 2-[2-[[1-[3-(1,1-Difluoroethyl)phenyl]triazol-4-yl]methoxy]pyrimidin-5-yl]propan-2-ol]",0.119,
"C[C@H](Oc1ncccn1)c1cn(-c2ccc(Cl)c(OC(F)F)c2)nn1 [Example 378, 2-[(1S)-1-[1-[4-Chloro-3-(difluoromethoxy)phenyl]triazol-4-yl]ethoxy]pyrimidine]",2.3,
"Cc1nc(OCc2cn(-c3ccc(C(F)(F)F)s3)nn2)ncc1F [Example 668, 5-Fluoro-4-methyl-2-((1-(5-(trifluoromethyl)thiophen-2-yl)-1H-1,2,3-triazol-4-yl)methoxy)pyrimidine]",,0.008
"CNc1nc(OCc2cn(-c3ccc(Cl)c(C(C)(F)F)c3)nn2)ncc1F [Example 549, 2-[[1-[4-Chloro-3-(1,1-difluoroethyl)phenyl]triazol-4-yl]methoxy]-5-fluoro-N-methyl-pyrimidin-4-amine]",,0.094
"COCc1ccnc(OCc2cn(-c3cccc(C)c3)nn2)n1 [Example 250, 4-(Methoxymethyl)-2-[[1-(m-tolyl)triazol-4-yl]methoxy]pyrimidine]",0.249,
"CNc1ccnc(OCc2cn(-c3ccc(F)c(OC(F)F)c3)nn2)n1 [Example 503, 2-[[1-[3-(Difluoromethoxy)-4-fluoro-phenyl]triazol-4-yl]methoxy]-N-methyl-pyrimidin-4-amine]",,0.008
"Cc1cnc(OCc2cn(-c3ccc(Cl)c(OC(F)F)c3)nn2)nc1C [Example 372, 2-[[1-[4-Chloro-3-(difluoromethoxy)phenyl]triazol-4-yl]methoxy]-4,5-dimethyl-pyrimidine]",0.008,
"CCc1cnc(OCc2cn(-c3ccc(OC(F)F)cc3)nn2)nc1 [Example 334, 2-[[1-[4-(Difluoromethoxy)phenyl]triazol-4-yl]methoxy]-5-ethyl-pyrimidine]",0.051,
"Fc1ccc(-n2cc(CNc3ncc(C(F)(F)F)cn3)nn2)cc1C(F)F [Example 213, N-[[1-[3-(Difluoromethyl)-4-fluoro-phenyl]triazol-4-yl]methyl]-5-(trifluoromethyl)pyrimidin-2-amine]",0.108,
"Cn1ccc(-c2cnc(OCc3cn(-c4ccc(F)c(C(C)(F)F)c4)nn3)nc2)n1 [Example 184, 2-[[1-[3-(1,1-Difluoroethyl)-4-fluoro-phenyl]triazol-4-yl]methoxy]-5-(1-methylpyrazol-3-yl)pyrimidine]",0.309,
"Fc1ccc(-n2cc(COc3ncccn3)nn2)cc1F [Example 597, 2-[[1-(3,4-Difluorophenyl)triazol-4-yl]methoxy]pyrimidine]",,2.1
"Cc1cnc(OCc2cn(-c3cccc(F)c3C)nn2)nc1 [Example 464, 2-[[1-(3-Fluoro-2-methyl-phenyl)triazol-4-yl]methoxy]-5-methyl-pyrimidine]",,0.515
"FCCCc1cnc(OCc2cn(-c3ccc(Cl)c(OC(F)F)c3)nn2)nc1 [Example 196, 2-[[1-[4-Chloro-3-(difluoromethoxy)phenyl]triazol-4-yl]methoxy]-5-(3-fluoropropyl)pyrimidine]",0.024,

Structure (SMILES),IC50 [1] [µM],IC50 [2] [µM]
"CC(C)(O)c1cnc(OCc2cn(-c3cccc(C(F)F)c3)nn2)nc1 [Example 272, 2-[2-[[1-[3-(Difluoromethyl)phenyl]triazol-4-yl]methoxy]pyrimidin-5-yl]propan-2-ol]",0.173,
"Cc1cc(-n2cc(CNc3ncc(Cl)c(C)n3)nn2)ccc1F [Example 199, 5-Chloro-N-[[1-(4-fluoro-3-methyl-phenyl)triazol-4-yl]methyl]-4-methyl-pyrimidin-2-amine]",0.051,
"CC(C)(O)c1cnc(OCc2cn(-c3ccc(Cl)c(C(C)(F)F)c3)nn2)nc1 [Example 532, 2-[2-[[1-[4-Chloro-3-(1,1-difluoroethyl)phenyl]triazol-4-yl]methoxy]pyrimidin-5-yl]propan-2-ol]",,0.081
"Fc1ccc(-n2cc(COc3nccc(-c4ccccc4)n3)nn2)cc1OC(F)F [Example 506, 2-[[1-[3-(Difluoromethoxy)-4-fluoro-phenyl]triazol-4-yl]methoxy]-4-phenyl-pyrimidine]",,9.75
"COc1cnc(OCc2cn(-c3ccc(F)c(C(C)(F)F)c3)nn2)nc1 [Example 68, 2-[[1-[3-(1,1-Difluoroethyl)-4-fluoro-phenyl]triazol-4-yl]methoxy]-5-methoxy-pyrimidine]",0.007,
"Cc1c(F)ccc(-n2cc(COc3nccc(C4CC4)n3)nn2)c1F [Example 648, 4-Cyclopropyl-2-[[1-(2,4-difluoro-3-methyl-phenyl)triazol-4-yl]methoxy]pyrimidine]",,0.592
"Cc1cnc(OCc2cn(-c3cccc(C)c3F)nn2)nc1 [Example 467, 2-[[1-(2-Fluoro-3-methyl-phenyl)triazol-4-yl]methoxy]-5-methyl-pyrimidine]",,0.711
"Cc1nc(OCc2cn(-c3cccc(F)c3C)nn2)ncc1F [Example 465, 5-Fluoro-2-[[1-(3-fluoro-2-methyl-phenyl)triazol-4-yl]methoxy]-4-methyl-pyrimidine]",,3.72
"Fc1ccc(-n2cc(COc3nccc(C(F)F)n3)nn2)cc1C(F)(F)F [Example 440, 4-(Difluoromethyl)-2-[[1-[4-fluoro-3-(trifluoromethyl)phenyl]triazol-4-yl]methoxy]pyrimidine]",,0.098
"Fc1cnc(OCc2cn(-c3ccc4c(c3)OC(F)(F)O4)nn2)nc1 [Example 358, 2-[[1-(2,2-Difluoro-1,3-benzodioxol-5-yl)triazol-4-yl]methoxy]-5-fluoro-pyrimidine]",0.726,
"Fc1cnc(OCc2cn(-c3ccc(F)c(C(F)(F)F)c3)nn2)nc1 [Example 84, 5-Fuoro-2-[[1-[4-fluoro-3-(trifluoromethyl)phenyl]triazol-4-yl]methoxy]pyrimidine]",0.072,
"Cc1cc(-n2cc(COc3ncc(C(C)(C)O)cn3)nn2)ccc1F [Example 181, 2-[2-[[1-(4-Fluoro-3-methyl-phenyl)triazol-4-yl]methoxy]pyrimidin-5-yl]propan-2-ol]",0.097,
"Fc1c(Cl)cccc1-n1cc(COc2ncccn2)nn1 [Example 611, 2-[[1-(3-Chloro-2-fluoro-phenyl)triazol-4-yl]methoxy]pyrimidine]",,> 10
"Cc1cnc(O[C@H](C)c2cn(-c3ccc(Cl)c(OC(F)F)c3)nn2)nc1 [Example 376, 2-[(1R)-1-[1-[4-Chloro-3-(difluoromethoxy)phenyl]triazol-4-yl]ethoxy]-5-methyl-pyrimidine]",0.011,
"Cc1cc(F)ccc1-n1cc(COc2ncc(Cl)cn2)nn1 [Example 489, 5-Chloro-2-[[1-(4-fluoro-2-methyl-phenyl)triazol-4-yl]methoxy]pyrimidine]",,4.42
"CC(F)(F)c1cc(-n2cc(COc3nccc(CO)n3)nn2)ccc1Cl [Example 540, [2-[[1-[4-Chloro-3-(1,1-difluoroethyl)phenyl]triazol-4-yl]methoxy]pyrimidin-4-yl]methanol]",,0.019
"CC(C)c1cnc(OCc2cn(-c3ccc(Cl)c(C(F)F)c3)nn2)nc1 [Example 48, 2-[[1-[4-Chloro-3-(difluoromethyl)phenyl]triazol-4-yl]methoxy]-5-isopropyl-pyrimidine]",0.008,
"Fc1ccc(-n2cc(COc3cnc(-c4cccs4)cn3)nn2)cc1OC(F)F [Example 397, 2-[[1-[3-(Difluoromethoxy)-4-fluoro-phenyl]triazol-4-yl]methoxy]-5-(2-thienyl)pyrazine]",,10.7
